This note sets out measurements from patent US11077090B2, “Compounds and compositions and uses thereof” (Sunovion Pharmaceuticals Inc., priority 2016, dated 2021).

One assay concerns compound-treated mice. Nature of the assay: Neuropharmacological assay (SmartCube): behavioral activity signature and minimal effective dose. Type of assay: in vivo. To be noted: MED = dose having 50% or more total activity. An excerpt:
Neurosci. 2011 Sep. 9; 5:103 (doi: 10.3389/fnins.2011.00103) (“Roberds”). As reported in Roberds, because psychiatric diseases generally result from disorders of cell-cell communication or circuitry, intact systems are useful in detecting improvement in disease-relevant endpoints. These endpoints are typically behavioral in nature, often requiring human observation and interpretation. To facilitate testing of multiple compounds for behavioral effects relevant to psychiatric disease, PsychoGenics, Inc. (Tarrytown, N.Y., “PGI”) developed SmartCube™, an automated system in which behaviors of compound-treated mice are captured by digital video and analyzed with computer algorithms. (D. Brunner et al., Drug Discov. Today 2002, 7:S107-S112). PGI Analytical Systems uses data from SmartCube™ to compare the behavioral signature of a test compound to a database of behavioral signatures obtained using a large set of diverse reference compounds. (The composition of the database as well as validation of the method is further described in Roberds). In this way, the neuropharmacological effects of a test compound can be predicted by similarity to major classes of compounds, such as antipsychotics, anxiolytics and antidepressants.
The SmartCube™ system produces an activity signature indicating the probability that the activity of the test compound at the administered dose matches a given class of neuropharmacological agents. (See, e.g., Roberds, FIGS. 2 and 3). The test compound is simultaneously compared against multiple classes of agents; thus, a separate probability is generated for each behavioral effect measured (e.g., anxiolytic activity, analgesic activity, etc.). In the table below, these probabilities are reported for each behavioral effect measured as follows:
where LOQ is the limit of quantification.
Provided compounds were dissolved in a mixture of Pharmasolve™ (N-methyl-2-pyrrolidone), polyethylene glycol and propylene glycol, and were injected i.p. 15 min. before the behavioral test. For each compound, injections were administered at 3 different doses. For each behavioral effect measured, results for the most efficacious dose(s) are presented. In the table below, DP: anti-depressant; AX: anxiolytic; SD: sedative hypnotic; PS: anti-psychotic; MS: mood stabilizer; AD: ADHD; CE: cognitive enhancer; AG: analgesic; UN: uncharacterized CNS activity.
The potency of many of the compounds in the table was also determined in the SmartCube™ system. Test compounds were routinely examined at dose levels of 0.3, 1, 3, 10 and 30 mg per kg (mpk), although the dose range was increased or decreased if necessary to obtain a full dose response curve. A compound's minimal effective dose (MED) is a measure of the compounds potency. The MED was defined as the dose (in mpk) having 50% or more total activity in SmartCube.
In the case of `Cl.NC1COCc2ccc3c(c21)C1CCC3C1` (single isomer, unassigned) [Example 161], the “Potency: minimal effective dose (MED), binned” value (shortened to “Potency: minimal effective dose”) was “B (>3 to 10 mpk)”.
For `Cl.NC1COCc2ccc3c(c21)C1CCC3C1` (single isomer, unassigned) [Example 162], the “Potency: minimal effective dose” value is reported as “B (>3 to 10 mpk)”.
As for `Cl.NC1COCc2ccc3c(c21)C1CCC3C1` (single isomer, unassigned) [Example 163], the “Potency: minimal effective dose” value is on record as “B (>3 to 10 mpk)”.

The assay is the same for the next values; noted with them: Mus musculus, ip, MED = dose having 50% or more total activity, read-out: Potency: minimal effective dose (MED).
As usually defined, the minimal effective dose is the smallest amount tested that counted as effective. Turning to `CN[C@H]1COCc2cccc(C)c21` (single isomer, unassigned) [Example 138], the minimal effective dose fell in the range of 3 to 10 mg/kg.
Same read-out and setting: to `CN[C@H]1COCc2c(Cl)cccc21` (single isomer, unassigned) [Example 150] belongs 3 to 10 mg/kg; to `C[C@H]1OCc2ccccc2[C@@H]1N` (single isomer, unassigned) [Example 151], 3 to 10 mg/kg.
In the case of `C[C@@H]1OCc2ccccc2[C@@H]1N` (single isomer, unassigned) [Example 153], the minimal effective dose lay in the range of 3 to 10 mg/kg.
On the same count and under the same terms, to `C[C@H]1OCc2ccccc2[C@H]1N` (single isomer, unassigned) [Example 154] belongs 3 to 10 mg/kg.

Still in this assay, the particulars now being: Mus musculus, ip, MED = dose having 50% or more total activity, read-out: Potency: minimal effective dose (MED), binned.
With `Cc1ccc2c(c1)[C@@H](N)[C@@H](C)OC2` (single isomer, unassigned) [Example 158], the minimal effective dose lay within 3 to 10 mg/kg.

The same assay, now with this note: i.p. 15 min before test, most efficacious dose(s).
In the case of `CN[C@H]1COCc2cccc(C)c21` (single isomer, unassigned) [Example 138], the “AD: ADHD (probability of activity signature)” value (“AD: ADHD” for short) is on record as “+ (LOQ ≤ + <5%)”, the “AG: analgesic (probability of activity signature)” value (shortened to “AG: analgesic”) is recorded as “++ (5% ≤ ++ <25%)”, the “AX: anxiolytic (probability of activity signature)” value (“AX: anxiolytic” for short) is on record as “++ (5% ≤ ++ <25%)” and the “CE: cognitive enhancer (probability of activity signature)” value (“CE: cognitive enhancer” for short) is recorded as “++ (5% ≤ ++ <25%)”. The “DP: anti-depressant (probability of activity signature)” value (“DP: anti-depressant” for short) was “++ (5% ≤ ++ <25%)”, the “MS: mood stabilizer (probability of activity signature)” value (from here on “MS: mood stabilizer”) is given as “+ (LOQ ≤ + <5%)”, the “PS: anti-psychotic (probability of activity signature)” value (from here on “PS: anti-psychotic”) is “++ (5% ≤ ++ <25%)” and the “SD: sedative hypnotic (probability of activity signature)” value (“SD: sedative hypnotic” for short) is on record as “++ (5% ≤ ++ <25%)”. Moreover, the “UN: uncharacterized CNS activity (probability of activity signature)” value (“UN: uncharacterized CNS activity” below) is reported as “+++ (25% ≤ +++ <50%)”.
For the compound `CN[C@H]1COCc2c(Cl)cccc21` (single isomer, unassigned) [Example 150], the “AD: ADHD” value is on record as “+ (LOQ ≤ + <5%)”, the “AG: analgesic” value is recorded as “++ (5% ≤ ++ <25%)”, the “AX: anxiolytic” value is “++ (5% ≤ ++ <25%)” and the “CE: cognitive enhancer” value is on record as “+ (LOQ ≤ + <5%)”. The “DP: anti-depressant” value is reported as “+ (LOQ ≤ + <5%)”, the “MS: mood stabilizer” value is recorded as “+ (LOQ ≤ + <5%)”, the “PS: anti-psychotic” value is listed as “++ (5% ≤ ++ <25%)” and the “SD: sedative hypnotic” value is recorded as “+ (LOQ ≤ + <5%)”. The “UN: uncharacterized CNS activity” value is given as “++++ (50% ≤ ++++)”.
As to `C[C@H]1OCc2ccccc2[C@@H]1N` (single isomer, unassigned) [Example 151], the “AD: ADHD” value was “+ (LOQ ≤ + <5%)”, the “AG: analgesic” value is recorded as “++ (5% ≤ ++ <25%)”, the “AX: anxiolytic” value is “+++ (25% ≤ +++ <50%)” and the “CE: cognitive enhancer” value is “++ (5% ≤ ++ <25%)”. Moreover, the “DP: anti-depressant” value was “++ (5% ≤ ++ <25%)”, the “MS: mood stabilizer” value was “+ (LOQ ≤ + <5%)”, the “PS: anti-psychotic” value is reported as “++ (5% ≤ ++ <25%)” and the “SD: sedative hypnotic” value is on record as “++ (5% ≤ ++ <25%)”. Further, the “UN: uncharacterized CNS activity” value is recorded as “++ (5% ≤ ++ <25%)”.
`C[C@@H]1OCc2ccccc2[C@@H]1N` (single isomer, unassigned) [Example 153]: the “AD: ADHD” value is listed as “+ (LOQ ≤ + <5%)”, the “AG: analgesic” value is on record as “++ (5% ≤ ++ <25%)”, the “AX: anxiolytic” value is “++ (5% ≤ ++ <25%)” and the “CE: cognitive enhancer” value is recorded as “++ (5% ≤ ++ <25%)”. The “DP: anti-depressant” value is listed as “+ (LOQ ≤ + <5%)”, the “MS: mood stabilizer” value is on record as “+ (LOQ ≤ + <5%)”, the “PS: anti-psychotic” value is “++ (5% ≤ ++ <25%)” and the “SD: sedative hypnotic” value was “+ (LOQ ≤ + <5%)”. In addition, the “UN: uncharacterized CNS activity” value is “+++ (25% ≤ +++ <50%)”.
Turning to `C[C@H]1OCc2ccccc2[C@H]1N` (single isomer, unassigned) [Example 154], the “AD: ADHD” value was “+ (LOQ ≤ + <5%)”, the “AG: analgesic” value is “++ (5% ≤ ++ <25%)”, the “AX: anxiolytic” value was “++ (5% ≤ ++ <25%)” and the “CE: cognitive enhancer” value is on record as “++ (5% ≤ ++ <25%)”. Besides, the “DP: anti-depressant” value was “+ (LOQ ≤ + <5%)”, the “MS: mood stabilizer” value is given as “+ (LOQ ≤ + <5%)”, the “PS: anti-psychotic” value was “++ (5% ≤ ++ <25%)” and the “SD: sedative hypnotic” value is “++ (5% ≤ ++ <25%)”. Further, the “UN: uncharacterized CNS activity” value was “++++ (50% ≤ ++++)”.
As to `Cc1ccc2c(c1)[C@@H](N)[C@@H](C)OC2` (single isomer, unassigned) [Example 158], the “AD: ADHD” value is recorded as “+ (LOQ ≤ + <5%)”, the “AG: analgesic” value was “++ (5% ≤ ++ <25%)”, the “AX: anxiolytic” value is reported as “++ (5% ≤ ++ <25%)” and the “CE: cognitive enhancer” value was “++ (5% ≤ ++ <25%)”. In addition, the “DP: anti-depressant” value is “++ (5% ≤ ++ <25%)”, the “MS: mood stabilizer” value is given as “+ (LOQ ≤ + <5%)”, the “PS: anti-psychotic” value was “+++ (25% ≤ +++ <50%)” and the “SD: sedative hypnotic” value was “++ (5% ≤ ++ <25%)”. In addition, the “UN: uncharacterized CNS activity” value is listed as “++ (5% ≤ ++ <25%)”.
As to `Cl.NC1COCc2ccc3c(c21)C1CCC3C1` (single isomer, unassigned) [Example 161], the “AD: ADHD” value is “+ (LOQ ≤ + <5%)”, the “AG: analgesic” value is reported as “++ (5% ≤ ++ <25%)”, the “AX: anxiolytic” value is “+++ (25% ≤ +++ <50%)” and the “CE: cognitive enhancer” value is “++ (5% ≤ ++ <25%)”. For the same compound, the “DP: anti-depressant” value is “++ (5% ≤ ++ <25%)”, the “MS: mood stabilizer” value is given as “+ (LOQ ≤ + <5%)”, the “PS: anti-psychotic” value is given as “++ (5% ≤ ++ <25%)” and the “SD: sedative hypnotic” value was “+ (LOQ ≤ + <5%)”. For the same compound, the “UN: uncharacterized CNS activity” value is on record as “++ (5% ≤ ++ <25%)”.
Consider `Cl.NC1COCc2ccc3c(c21)C1CCC3C1` (single isomer, unassigned) [Example 162], for which the “AD: ADHD” value is “+ (LOQ ≤ + <5%)”, the “AG: analgesic” value is on record as “++ (5% ≤ ++ <25%)”, the “AX: anxiolytic” value was “+++ (25% ≤ +++ <50%)” and the “CE: cognitive enhancer” value is recorded as “++ (5% ≤ ++ <25%)”. Further, the “DP: anti-depressant” value was “+ (LOQ ≤ + <5%)”, the “MS: mood stabilizer” value is given as “+ (LOQ ≤ + <5%)”, the “PS: anti-psychotic” value is recorded as “++ (5% ≤ ++ <25%)” and the “SD: sedative hypnotic” value is recorded as “+ (LOQ ≤ + <5%)”. Also, the “UN: uncharacterized CNS activity” value is on record as “+++ (25% ≤ +++ <50%)”.
As to `Cl.NC1COCc2ccc3c(c21)C1CCC3C1` (single isomer, unassigned) [Example 163], the “AD: ADHD” value is given as “+ (LOQ ≤ + <5%)”, the “AG: analgesic” value is “++ (5% ≤ ++ <25%)”, the “AX: anxiolytic” value is listed as “++ (5% ≤ ++ <25%)” and the “CE: cognitive enhancer” value was “++ (5% ≤ ++ <25%)”. Further, the “DP: anti-depressant” value was “++ (5% ≤ ++ <25%)”, the “MS: mood stabilizer” value is given as “+ (LOQ ≤ + <5%)”, the “PS: anti-psychotic” value is recorded as “+++ (25% ≤ +++ <50%)” and the “SD: sedative hypnotic” value was “++ (5% ≤ ++ <25%)”. For the same compound, the “UN: uncharacterized CNS activity” value is given as “+++ (25% ≤ +++ <50%)”.
